Common to all, as to assay: KinomeScan kinase panel, single concentration 10 µM
Holding throughout (assay type): binding

Assay [1] addresses T1, KinomeScan kinase panel (Homo sapiens, UniProt Q96PY6).
T1 construct: purchased DiscoveRx (KinomeScan)
T1 sequence (Q96PY6 1-1258): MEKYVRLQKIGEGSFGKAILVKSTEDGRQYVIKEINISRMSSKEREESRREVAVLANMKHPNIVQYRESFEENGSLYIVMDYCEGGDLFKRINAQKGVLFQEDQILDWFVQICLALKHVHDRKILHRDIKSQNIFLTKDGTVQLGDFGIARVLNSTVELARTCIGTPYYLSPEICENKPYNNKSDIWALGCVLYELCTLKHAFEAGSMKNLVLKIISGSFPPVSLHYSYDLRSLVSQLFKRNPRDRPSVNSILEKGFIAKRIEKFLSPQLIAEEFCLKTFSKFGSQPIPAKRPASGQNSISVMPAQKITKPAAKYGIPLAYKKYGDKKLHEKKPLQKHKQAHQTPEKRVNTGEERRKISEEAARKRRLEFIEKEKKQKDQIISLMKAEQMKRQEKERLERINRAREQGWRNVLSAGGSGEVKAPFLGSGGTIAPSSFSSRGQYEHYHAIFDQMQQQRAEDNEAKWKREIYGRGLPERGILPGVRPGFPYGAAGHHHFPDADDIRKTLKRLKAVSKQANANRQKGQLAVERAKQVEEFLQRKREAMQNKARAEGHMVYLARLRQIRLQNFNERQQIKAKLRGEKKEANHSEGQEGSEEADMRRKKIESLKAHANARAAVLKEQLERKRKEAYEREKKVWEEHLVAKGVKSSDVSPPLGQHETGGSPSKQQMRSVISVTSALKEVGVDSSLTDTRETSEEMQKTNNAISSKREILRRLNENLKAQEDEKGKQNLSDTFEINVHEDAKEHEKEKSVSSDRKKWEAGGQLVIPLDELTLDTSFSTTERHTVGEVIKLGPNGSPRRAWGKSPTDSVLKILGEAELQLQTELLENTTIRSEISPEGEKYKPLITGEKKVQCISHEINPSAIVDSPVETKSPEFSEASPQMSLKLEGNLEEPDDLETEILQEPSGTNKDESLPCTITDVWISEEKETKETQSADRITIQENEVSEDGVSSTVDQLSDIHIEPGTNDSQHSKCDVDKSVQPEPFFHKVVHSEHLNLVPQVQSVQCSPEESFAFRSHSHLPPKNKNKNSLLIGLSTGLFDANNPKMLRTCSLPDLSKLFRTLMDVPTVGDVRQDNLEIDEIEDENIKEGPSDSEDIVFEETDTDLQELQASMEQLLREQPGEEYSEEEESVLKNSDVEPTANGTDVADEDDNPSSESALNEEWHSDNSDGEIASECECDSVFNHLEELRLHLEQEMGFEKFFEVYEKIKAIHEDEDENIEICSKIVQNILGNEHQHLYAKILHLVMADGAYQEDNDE
To be noted: NEK1, 10 µM; read-out: score (%).

Assay [2] addresses T2, KinomeScan kinase panel (Homo sapiens, UniProt O14965).
T2 construct: purchased DiscoveRx (KinomeScan)
T2 sequence (O14965 1-403): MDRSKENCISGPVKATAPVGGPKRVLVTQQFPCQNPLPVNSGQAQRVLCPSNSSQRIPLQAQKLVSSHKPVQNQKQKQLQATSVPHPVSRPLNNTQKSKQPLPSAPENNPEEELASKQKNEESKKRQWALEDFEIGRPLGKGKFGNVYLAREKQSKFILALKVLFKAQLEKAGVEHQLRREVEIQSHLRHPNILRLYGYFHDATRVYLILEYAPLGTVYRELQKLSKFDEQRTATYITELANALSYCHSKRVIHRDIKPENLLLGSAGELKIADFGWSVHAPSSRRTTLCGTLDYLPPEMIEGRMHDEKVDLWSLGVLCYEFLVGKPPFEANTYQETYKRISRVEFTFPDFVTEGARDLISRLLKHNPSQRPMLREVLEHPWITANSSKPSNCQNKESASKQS
As to conditions: AURKA, 10 µM; read-out: score (%).

For assay [3], the target named is T3, KinomeScan kinase panel (Homo sapiens, UniProt Q00526).
T3 construct: purchased DiscoveRx (KinomeScan)
T3 sequence (Q00526 whole entry): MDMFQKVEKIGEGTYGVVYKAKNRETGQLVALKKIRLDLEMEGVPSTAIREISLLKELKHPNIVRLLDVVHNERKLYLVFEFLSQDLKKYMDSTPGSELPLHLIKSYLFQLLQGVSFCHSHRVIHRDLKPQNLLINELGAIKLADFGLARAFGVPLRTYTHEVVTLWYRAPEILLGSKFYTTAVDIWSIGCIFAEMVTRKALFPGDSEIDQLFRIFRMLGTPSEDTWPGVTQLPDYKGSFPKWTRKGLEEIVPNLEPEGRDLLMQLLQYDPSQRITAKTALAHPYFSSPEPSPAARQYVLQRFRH
As to conditions: CDK3, 10 µM.

In assay [4] the target is T4, KinomeScan kinase panel (Homo sapiens, UniProt Q7KZI7).
T4 construct: purchased DiscoveRx (KinomeScan)
T4 sequence (Q7KZI7 whole entry): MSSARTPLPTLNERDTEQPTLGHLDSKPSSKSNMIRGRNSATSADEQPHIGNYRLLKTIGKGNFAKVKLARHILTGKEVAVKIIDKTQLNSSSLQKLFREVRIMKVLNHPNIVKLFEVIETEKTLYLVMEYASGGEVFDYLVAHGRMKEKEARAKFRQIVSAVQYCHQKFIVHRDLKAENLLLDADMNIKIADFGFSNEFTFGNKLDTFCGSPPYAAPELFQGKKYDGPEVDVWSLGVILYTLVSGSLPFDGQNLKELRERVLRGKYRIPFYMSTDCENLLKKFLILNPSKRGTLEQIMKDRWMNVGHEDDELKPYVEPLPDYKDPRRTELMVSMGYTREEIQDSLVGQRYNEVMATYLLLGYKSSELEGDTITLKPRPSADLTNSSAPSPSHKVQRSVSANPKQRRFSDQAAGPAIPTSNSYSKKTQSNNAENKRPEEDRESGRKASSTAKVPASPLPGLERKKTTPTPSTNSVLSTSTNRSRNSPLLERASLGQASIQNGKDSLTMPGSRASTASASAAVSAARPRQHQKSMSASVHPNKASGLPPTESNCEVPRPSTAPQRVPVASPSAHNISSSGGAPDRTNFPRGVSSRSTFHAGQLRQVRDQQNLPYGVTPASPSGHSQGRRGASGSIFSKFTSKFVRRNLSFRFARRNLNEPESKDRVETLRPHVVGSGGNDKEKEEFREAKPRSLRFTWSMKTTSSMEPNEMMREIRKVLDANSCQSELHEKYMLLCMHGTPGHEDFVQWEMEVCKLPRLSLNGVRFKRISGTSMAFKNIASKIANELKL
As to conditions: MARK2, 10 µM; read-out: score (%).

Assay [5] concerns the target T5, KinomeScan kinase panel (Homo sapiens, UniProt P10721, D816V).
T5 construct: purchased DiscoveRx (KinomeScan)
As to conditions: KIT(D816V), 10 µM; read-out: score (%).

T5 sequence (P10721 26-976 D816V): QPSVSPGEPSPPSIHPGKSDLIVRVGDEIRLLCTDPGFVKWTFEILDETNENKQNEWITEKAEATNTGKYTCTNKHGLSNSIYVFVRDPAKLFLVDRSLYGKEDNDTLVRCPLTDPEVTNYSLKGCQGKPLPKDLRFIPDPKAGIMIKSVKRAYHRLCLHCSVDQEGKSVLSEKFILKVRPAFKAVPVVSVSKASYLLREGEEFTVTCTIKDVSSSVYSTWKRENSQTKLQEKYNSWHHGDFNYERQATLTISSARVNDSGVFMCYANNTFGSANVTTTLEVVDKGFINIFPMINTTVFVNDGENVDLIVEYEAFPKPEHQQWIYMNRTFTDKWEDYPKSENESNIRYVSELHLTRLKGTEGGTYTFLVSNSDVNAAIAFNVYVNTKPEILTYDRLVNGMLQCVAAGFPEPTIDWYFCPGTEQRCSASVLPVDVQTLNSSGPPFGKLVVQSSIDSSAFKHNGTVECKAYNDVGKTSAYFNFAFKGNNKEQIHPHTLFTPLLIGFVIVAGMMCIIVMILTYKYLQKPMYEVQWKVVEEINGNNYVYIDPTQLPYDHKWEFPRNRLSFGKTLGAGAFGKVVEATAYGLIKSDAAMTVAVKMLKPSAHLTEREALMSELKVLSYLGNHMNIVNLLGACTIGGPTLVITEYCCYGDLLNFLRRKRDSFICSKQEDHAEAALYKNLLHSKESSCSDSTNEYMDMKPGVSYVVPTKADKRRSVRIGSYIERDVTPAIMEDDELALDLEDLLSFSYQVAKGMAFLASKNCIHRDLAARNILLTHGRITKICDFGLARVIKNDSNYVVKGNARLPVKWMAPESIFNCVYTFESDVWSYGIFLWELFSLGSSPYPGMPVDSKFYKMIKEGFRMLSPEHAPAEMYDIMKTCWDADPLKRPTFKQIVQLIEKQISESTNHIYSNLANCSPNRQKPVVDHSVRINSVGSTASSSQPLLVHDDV

For the compound `CCN1CCN(Cc2ccc(NC(=O)c3ccc(C)c(NC(=O)c4cncc(-c5cccs5)c4)c3)cc2C(F)(F)F)CC1` [ALW-II-41-27], the remaining binding at 10 µM in assay [1] was > 30%; in assay [2], > 30%; in assay [4] it was > 30%; in assay [5], 0.75%. Also, the “score (%)” value in assay [3] is listed as “nb (Hits values higher than 30% were considered negative (no binding: nb))”.
`CCN1CCN(Cc2ccc(NC(=O)c3ccc(C)c(/C=C/c4cnc5[nH]ccc5c4Cl)c3)cc2C(F)(F)F)CC1` [HG-6-63-01, (E)-3-(2-(4-chloro-1H-pyrrolo[2,3-b]pyridin-5-yl)vinyl)-N-(4-((4-ethylpiperazin-1-yl)methyl)-3-(trifluoromethyl)phenyl)-4-methylbenzamide]: the remaining binding at 10 µM in assay [1] was > 30%; in assay [2] it was 24%; in assay [4], > 30%; in assay [5] it was 0.3%. Moreover, the “score (%)” value in assay [3] is “nb (Hits values higher than 30% were considered negative (no binding: nb))”.
On to `CCN1CCN(Cc2ccc(NC(=O)c3ccc(C)c(C#Cc4cccnc4)c3)cc2C(F)(F)F)CC1` [XMD15-44], for which the remaining binding at 10 µM in assay [1] is > 30%; in assay [2], > 30%; in assay [4], > 30%; in assay [5], 2%. Further, the “score (%)” value in assay [3] came to 24%.

These data come from PMC4457528, “Identification of Novel Small Molecule Inhibitors of Oncogenic RET Kinase” (PLoS ONE, 2015).
